In PMC6356579, “Mass Spectrometry Analysis and Biological Characterization of the Predatory Ant Odontomachus monticola Venom and Venom Sac Components” (Toxins, 2019):
Read-outs that look alike come from different tables or passages of the source. Marks after values point to notes of the source that are not given here. Bridge positions count the residues as written; N and C are the ends. Ends that are not written are not given here. I, II: the chains in the order shown.

Assays:
E. coli (NBRC 14237) = format: cell-based, Escherichia coli; details: minimum inhibitory concentration; synthetic peptides; method as described previously [6]
Description: (§1) Pilosulin-like peptides 1–6 were chemically synthesized by the 9-fluorenylmethyloxycarbonyl (Fmoc) method, and we examined their biological activities (Table 3). We synthesized homodimeric pilosulin-like peptide 4, which was linked by a single disulfide bond. […] These activities were higher than those of magainin, a well-known Xenopus laevis antimicrobial peptide. […] The cysteine residue of pilosulin-like peptide 4 may be important for antifungal activity.
(§2) Pilosulin-like peptides 1–6 were prepared using Fmoc chemistry by GenScript (Nanjing, Jiangsu, China). The peptides were purified by RP-HPLC with a preparative C18 column. The purity and molecular weight of the final peptides were verified by HPLC and MS. Antimicrobial, hemolytic, and histamine-releasing activities were measured as described previously.

S. aureus (NBRC 12732) = format: cell-based, Staphylococcus aureus; details: minimum inhibitory concentration; synthetic peptides; method as described previously [6]
Description: as §1, §2

Hemolytic activity = format: cell-based; details: for Hemolytic Activity (%) at 10 μM: peptide at 10 μM; for Hemolytic Activity (%) at 50 μM: peptide at 50 μM
Protocol: as §2

[1] = system: S. cerevisiae (NBRC 10217); format: cell-based, Saccharomyces cerevisiae; details: minimum inhibitory concentration; synthetic peptides; method as described previously [6]
Description: as §1, §2

[2] = peptide at 10 μM; ref Shigeri et al. [24]; cited from earlier work
Protocol: Table 3 Biological properties of O. monticola pilosulin-like peptides. | column: Hemolytic Activity (%) / at 10 μM

rat mast cells [3] = details: peptide at 10 μM; ref Shigeri et al. [24]; cited from earlier work
Protocol: Table 3 Biological properties of O. monticola pilosulin-like peptides. | column: Histamine-Releasing Activity at 10 μM (%)

rat mast cells [4] = experiment: Histamine-releasing activity; format: cell-based; details: peptide at 10 μM
Protocol: as §2

## IKGKKIMKNMGKAMKIAGKVAKAMAPIVVPLIVSAA-NH2 [PLP6]
E. coli (NBRC 14237)
  MIC, E. coli (NBRC 14237): <3.1 µM
S. aureus (NBRC 12732)
  MIC, S. aureus (NBRC 12732): <3.1 µM
Hemolytic activity
  Hemolytic Activity (%) at 10 μM: Negative
  Hemolytic Activity (%) at 50 μM: Negative

## GWGSIFKTVGKMIAKAAVKAAPEAISAMASQNE [PLP2]
E. coli (NBRC 14237)
  MIC, E. coli (NBRC 14237): <6.2 µM
S. aureus (NBRC 12732)
  MIC, S. aureus (NBRC 12732): <6.2 µM
Hemolytic activity
  Hemolytic Activity (%) at 10 μM: Negative
  Hemolytic Activity (%) at 50 μM: 10.4%
[1]
  MIC, S. cerevisiae (NBRC 10217): <50 µM

## Mastoparan
[2]
  Hemolytic Activity (%) at 10 μM: 13.5 ^b %
Rat mast cells [3]
  Histamine-Releasing Activity at 10 μM (%): 31.1 ^b %

## IWGALLGTLIPAITSAIQ-NH2 [PLP5]
E. coli (NBRC 14237)
  MIC, E. coli (NBRC 14237): <50 µM
Hemolytic activity
  Hemolytic Activity (%) at 10 μM: 6.9%
  Hemolytic Activity (%) at 50 μM: 94.8%

## Melittin: a honey bee hemolytic peptide
[2]
  Hemolytic Activity (%) at 10 μM: 100.0 ^b %
Rat mast cells [3]
  Histamine-Releasing Activity at 10 μM (%): 64.3 ^b %

## KIKWGKIFKKGGKLIGKTALEAAANAAASEAISAMASQNE [PLP3]
E. coli (NBRC 14237)
  MIC, E. coli (NBRC 14237): <3.1 µM
S. aureus (NBRC 12732)
  MIC, S. aureus (NBRC 12732): <25 µM
Hemolytic activity
  Hemolytic Activity (%) at 10 μM: Negative
  Hemolytic Activity (%) at 50 μM: Negative
[1]
  MIC, S. cerevisiae (NBRC 10217): <50 µM

## GILDWGKKVMDWIKDKM-NH2 [PLP1]
E. coli (NBRC 14237)
  MIC, E. coli (NBRC 14237): <3.1 µM
S. aureus (NBRC 12732)
  MIC, S. aureus (NBRC 12732): <3.1 µM
Hemolytic activity
  Hemolytic Activity (%) at 10 μM: Negative
  Hemolytic Activity (%) at 50 μM: Negative
[1]
  MIC, S. cerevisiae (NBRC 10217): <50 µM

## Magainin [reference compound]
E. coli (NBRC 14237)
  MIC, E. coli (NBRC 14237): <12.5 µM
S. aureus (NBRC 12732)
  MIC, S. aureus (NBRC 12732): <25 µM
[1]
  MIC, S. cerevisiae (NBRC 10217): Negative

## I: GVKELFGKAWGLVKKHLPKACGLLGYVKQ-OH / II: GVKELFGKAWGLVKKHLPKACGLLGYVKQ-OH (disulfide I:21-II:21) [PLP4]
E. coli (NBRC 14237)
  MIC, E. coli (NBRC 14237): <3.1 µM
Rat mast cells [4]
  Histamine-Releasing Activity at 10 μM (%): 66.4%
Rat mast cells [4]; listed as Pilosulin-like peptide 4
  Histamine-Releasing Activity at 10 μM (%): comparable to that of melittin
S. aureus (NBRC 12732)
  MIC, S. aureus (NBRC 12732): <3.1 µM
Hemolytic activity
  Hemolytic Activity (%) at 10 μM: Negative
  Hemolytic Activity (%) at 50 μM: 10.5%
[1]
  MIC, S. cerevisiae (NBRC 10217): <3.1 µM
